Data taken from US20050026949A1, “Methods of therapeutic treatment using amounts of retinoids without regard to body weight” (Allergan, Inc., priority 2003, published 2005).

Tests used:
RXRs = experiment: Activation of RXRs; format: cell-based
RARs = experiment: Activation of RARs; format: cell-based
[1] = Food effect on pharmacokinetics of tazarotenic acid after oral tazarotene (Example 1); format: in vivo, human; conditions: 6.3 mg oral tazarotene
Procedure: For the purposes of this application, the bioavailability of a drug may be based on the human pharmokinetic parameters of maximum blood concentration (Cmax) and Area under the blood concentration-time curve (AUC).
(§1) The LC-MS/MS test for simultaneous detection of tazarotene and tazarotenic acid may be run as follows. One ml of plasma (EDTA-treated) is diluted with 1.0 ml of water. Diluted plasma is extracted using solid phase extraction (SPE) on a C18 cartridge. The eluate is evaporated, reconstituted in a water/methanol-based mobile phase, and injected onto a 4.6×50 mm, 3 μm pore size C-8 reverse phase high pressure liquid chromatography (HPLC) column (Agilent, Wilmington, Del.). Compounds are gradient-eluted at 1.2 mL/min and detected using an API 3000 triple quadrupole mass spectrometer with an Atmospheric Pressure Chemical Ionization (APCI) source (PE-Sciex, Concord, Ontario, Canada). Molecular reaction monitoring enhances the sensitivity and selectivity of this assay by collisionally dissociating the protonated molecules for the analyte and an internal standard thereby forming the product ions. The specific precursor-product ion pair monitored are m/z 352→324 for tazarotene, m/z 359→331 for the tazarotene internal standard, m/z 324→294 for tazarotenic acid, and m/z 331+298 for the tazarotenic acid internal standard. The lower limit of quantitation at assay range tested is 0.1 ng/mL, with a coefficient of variation and deviation from nominal concentration of <15%.

RAR-A = target: T1, RAR-A (Homo sapiens, UniProt P10276); experiment: RAR-alpha activity; format: cell-based
T1 sequence (P10276 1-462): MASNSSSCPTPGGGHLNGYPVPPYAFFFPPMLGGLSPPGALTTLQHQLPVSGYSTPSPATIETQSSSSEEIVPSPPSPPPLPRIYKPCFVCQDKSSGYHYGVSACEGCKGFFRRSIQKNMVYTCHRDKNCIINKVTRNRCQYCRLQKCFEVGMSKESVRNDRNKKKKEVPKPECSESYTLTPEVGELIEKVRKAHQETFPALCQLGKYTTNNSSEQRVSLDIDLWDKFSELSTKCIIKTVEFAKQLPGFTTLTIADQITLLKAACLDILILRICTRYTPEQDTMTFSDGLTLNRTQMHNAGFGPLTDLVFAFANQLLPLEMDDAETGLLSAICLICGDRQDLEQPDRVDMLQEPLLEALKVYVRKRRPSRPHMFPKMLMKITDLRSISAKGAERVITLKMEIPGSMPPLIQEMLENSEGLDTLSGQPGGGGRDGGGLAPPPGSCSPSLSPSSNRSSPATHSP

[2] = Body weight effect on plasma tazarotenic acid Cmax and AUC (Example 7); format: in vivo, human; conditions: 6 mg tazarotene daily, day 9
Procedure: as §1, with “<15%. […]” for “<15%.”

[3] = topical administration of tazarotene; cited from earlier work
[4] = system: patients in the studies of acitretin; conditions: published data (N = 525); cited from earlier work
[5] = oral, cited from earlier work; for bioavailability in the presence of food: Colburn et al
[6] = in vivo; cited from earlier work
[7] = cited from earlier work
[8] = system: patients in the studies of isotretinoin; conditions: published data (N = 525); cited from earlier work
sebaceous glands = conditions: published reports (Geiger); cited from earlier work

With `CC1(C)CC[S+]([O-])c2ccc(C#Cc3ccc(C(=O)O)cn3)cc21` (stereo not drawn) [AGN 190844] as the compound, how does the “activation of RXRs” value (RXRs) read?
Its value is “does not activate”.

What about the “activation of RARs” value (RARs) of the same compound?
The value was “does not activate”.

What does the source list for `CC1(C)CCSc2ccc(C#Cc3ccc(C(=O)O)cn3)cc21` [tazarotenic acid]?
90% CI ratio of Cmax values ([1]; fed vs fasted): partially outside the 80-125% boundary; 90% confidence intervals of AUC ratios (test/reference) ([1]; fed vs fasted): completely within the 80-125% boundary; average ratio of Cmax (test/reference) ([1]; fed vs fasted, Day 0): 1.00; average ratio of Cmax (test/reference) ([1]; fed vs fasted, Day 9): 0.829; effect of high-fat meal on bioavailability or pharmacokinetics of tazarotenic acid ([1]; within 30 minutes after high fat breakfast vs after 8-10 hour fast, single and multiple dose, healthy subjects): does not substantially affect; activation of RXRs (RXRs): does not activate; RAR-A activity (RAR-A): minimal; correlation of Cmax or AUC with body weight [2]: no correlation between either Cmax or AUC and body weight; maximum blood concentration of tazarotenic acid [3]: less than 30 ng/ml; receptor specificity and selectivity (RARs): specificity for the RARs and selectivity for RAR-β and RAR-γ

With `COc1cc(C)c(/C=C/C(C)=C/C=C/C(C)=C/C(=O)O)c(C)c1C` [Acitretin, acitretin] as the compound, how does the Alopecia [4] read?
Its Alopecia is 319 (60.8) NUMBER OF (%) OF PATIENTS.

What about the Arthralgia [4] of the same compound?
Its Arthralgia is 102 (19.4) NUMBER OF (%) OF PATIENTS.

What about the Atrophy of skin [4] of the same compound?
Its Atrophy of skin is 64 (12.2) NUMBER OF (%) OF PATIENTS.

And the Back pain [4]?
The Back pain was 41 (7.8) NUMBER OF (%) OF PATIENTS.

What about the Cheilitis [4] of the same compound?
Its Cheilitis is 429 (81.7) NUMBER OF (%) OF PATIENTS.

What about the “Dry Skin” value [4] of the same compound?
The value was 174 (33.1) NUMBER OF (%) OF PATIENTS.

What about the “Dry mouth/Oral dryness” value [4] of the same compound?
The value was 76 (14.5) NUMBER OF (%) OF PATIENTS.

And the Epistaxis [4]?
Its Epistaxis is 61 (11.6) NUMBER OF (%) OF PATIENTS.

And the “Erythematous rash/Erythema” value [4]?
Its value is 57 (10.9) NUMBER OF (%) OF PATIENTS.

And the Hyperesthesia [4]?
The Hyperesthesia was 66 (12.6) NUMBER OF (%) OF PATIENTS.

And the “Nail Disorder” value [4]?
The value was 170 (32.4) NUMBER OF (%) OF PATIENTS.

What about the Paresthesia [4] of the same compound?
Its Paresthesia is 56 (10.7) NUMBER OF (%) OF PATIENTS.

What about the Paronychia/Nail disorder [4] of the same compound?
The Paronychia/Nail disorder was 66 (12.6) NUMBER OF (%) OF PATIENTS.

What about the Pruritus [4] of the same compound?
The Pruritus was 157 (29.9) NUMBER OF (%) OF PATIENTS.

And the Rhinitis [4]?
Its Rhinitis is 153 (29.1) NUMBER OF (%) OF PATIENTS.

And the Rigors/Chills [4]?
Its Rigors/Chills is 67 (12.8) NUMBER OF (%) OF PATIENTS.

What about the “Skin peeling/Desquamation” value [4] of the same compound?
Its value is 345 (65.7) NUMBER OF (%) OF PATIENTS.

What about the “Sticky skin/Skin disorder” value [4] of the same compound?
The value was 129 (24.6) NUMBER OF (%) OF PATIENTS.

What about the Xerophthalmia/Eye disorder [4] of the same compound?
Its Xerophthalmia/Eye disorder is 112 (21.3) NUMBER OF (%) OF PATIENTS.

And the “bioavailability in the presence of food” value [5]?
Its value is “bioavailability is increased in the presence of food”.

And the “bioavailability in relation to body weight” value (shortened to “bioavailability in relation”) [6]?
The value was “increased with a reduced body weight”.

And the “effect on contraceptive effect of microdosed progestin preparations” value ([7]; in vivo)?
The value was “interferes with the contraceptive effect”.

For `C=C(c1ccc(C(=O)O)cc1)c1cc2c(cc1C)C(C)(C)CCC2(C)C` [bexarotene], which “bioavailability in the presence of food” value [5] is on record?
Its value is “bioavailability is increased in the presence of food”.

And the “effect on plasma concentration of coadministered tamoxifen” value ([7]; coadministration with tamoxifen)?
The value was “reduced plasma concentration of tamoxifen”.

With `CC1=C(/C=C/C(C)=C/C=C/C(C)=C\C(=O)O)C(C)(C)CCC1` [Isotretinoin, isotretinoin] as the compound, how does the “bioavailability in the presence of food” value [5] read?
The value was “bioavailability is increased in the presence of food”.

And the “total dose needed to reach the same peak blood concentration in the fasted state as following a high fat meal” value [5]?
The value was “more than doubled”.

What about the “bioavailability in relation” value [6] of the same compound?
Its value is “increased with a reduced body weight”.

What about the Cheilitis [8] of the same compound?
The Cheilitis was 472 (90.2) NUMBER OF (%) OF PATIENTS.

What about the Conjunctivitis [8] of the same compound?
Its Conjunctivitis is 201 (38.4) NUMBER OF (%) OF PATIENTS.

What about the “Desquamation central face/Desquamation” value [8] of the same compound?
The value was 187 (35.8) NUMBER OF (%) OF PATIENTS.

And the Dry Skin [8]?
Its Dry Skin is 172 (32.9) NUMBER OF (%) OF PATIENTS.

What about the Dry nose [8] of the same compound?
Its Dry nose is 136 (26.0) NUMBER OF (%) OF PATIENTS.

And the Epistaxis [8]?
The Epistaxis was 121 (23.1) NUMBER OF (%) OF PATIENTS.

What about the “Fingertip peeling/Desquamation” value [8] of the same compound?
Its value is 63 (12.0) NUMBER OF (%) OF PATIENTS.

What about the Headache [8] of the same compound?
The Headache was 44 (8.4) NUMBER OF (%) OF PATIENTS.

What about the Irritation of eyes [8] of the same compound?
The Irritation of eyes was 85 (16.3) NUMBER OF (%) OF PATIENTS.

What about the Pruritus [8] of the same compound?
The Pruritus was 127 (24.3) NUMBER OF (%) OF PATIENTS.

What about the “Red Scaly face/Desquamation” value [8] of the same compound?
Its value is 54 (10.3) NUMBER OF (%) OF PATIENTS.

What about the “Skin fragility/Skin disorder” value [8] of the same compound?
Its value is 164 (31.4) NUMBER OF (%) OF PATIENTS.

And the “decrease in sebum secretion rate” value (sebaceous glands)?
Its value is “about 90%”.

And the “effect on blood concentrations of coadministered contraceptive components” value ([7]; coadministered contraceptive tablets)?
The value was “decreases blood concentrations of both ethinyl estradiol and norethindrone”.

With `CCOC(=O)/C=C(C)/C=C/C=C(C)/C=C/c1c(C)cc(OC)c(C)c1C` [etretinate] as the compound, how does the “bioavailability in relation” value [6] read?
Its value is “increased with a reduced body weight”.
